In publication PMC11066006, “Discovery of active mouse, plant and fungal cytochrome P450s in endogenous proteomes and upon expression in planta” (Scientific Reports, 2024):

Experiments:
Type in all cases: biochemical
MmCyp1a2-GFP = target: T1, MmCyp1a2-GFP (Mus musculus, UniProt P00186); experiment: activity-based labeling, click chemistry, in-gel fluorescence; details: 10 μM probe, 1 mM NADPH, 1.5 h, leaf microsomes; covalent
T1 construct: gene Cyp1a2; C-terminal GFP fusion, 82 kDa, codon-optimised, agroinfiltrated Nicotiana benthamiana leaf microsomes
T1 sequence (P00186 2-513): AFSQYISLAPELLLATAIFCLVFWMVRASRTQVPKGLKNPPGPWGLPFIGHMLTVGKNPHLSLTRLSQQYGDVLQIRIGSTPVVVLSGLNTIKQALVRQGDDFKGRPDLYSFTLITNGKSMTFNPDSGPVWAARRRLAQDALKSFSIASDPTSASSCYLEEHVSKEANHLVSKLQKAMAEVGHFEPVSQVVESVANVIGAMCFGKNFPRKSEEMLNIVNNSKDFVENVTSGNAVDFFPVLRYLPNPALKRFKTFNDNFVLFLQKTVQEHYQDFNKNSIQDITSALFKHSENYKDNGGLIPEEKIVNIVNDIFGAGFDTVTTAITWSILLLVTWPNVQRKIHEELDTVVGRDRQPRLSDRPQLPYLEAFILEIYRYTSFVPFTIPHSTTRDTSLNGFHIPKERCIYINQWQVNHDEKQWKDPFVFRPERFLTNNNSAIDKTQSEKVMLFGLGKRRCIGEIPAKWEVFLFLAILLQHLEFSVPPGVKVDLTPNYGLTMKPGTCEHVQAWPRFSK

ZmCYP81A9-GFP [1] = target: T2, ZmCYP81A9-GFP (Zea mays, UniProt A0A804P7U7); experiment: as above; details: 10 μM probe, 1 mM NADPH, 1.5 h, leaf microsomes; covalent
T2 construct: C-terminal GFP fusion, codon-optimised, agroinfiltrated Nicotiana benthamiana leaf microsomes
T2 sequence (A0A804P7U7 with tags, fused parts or gaps): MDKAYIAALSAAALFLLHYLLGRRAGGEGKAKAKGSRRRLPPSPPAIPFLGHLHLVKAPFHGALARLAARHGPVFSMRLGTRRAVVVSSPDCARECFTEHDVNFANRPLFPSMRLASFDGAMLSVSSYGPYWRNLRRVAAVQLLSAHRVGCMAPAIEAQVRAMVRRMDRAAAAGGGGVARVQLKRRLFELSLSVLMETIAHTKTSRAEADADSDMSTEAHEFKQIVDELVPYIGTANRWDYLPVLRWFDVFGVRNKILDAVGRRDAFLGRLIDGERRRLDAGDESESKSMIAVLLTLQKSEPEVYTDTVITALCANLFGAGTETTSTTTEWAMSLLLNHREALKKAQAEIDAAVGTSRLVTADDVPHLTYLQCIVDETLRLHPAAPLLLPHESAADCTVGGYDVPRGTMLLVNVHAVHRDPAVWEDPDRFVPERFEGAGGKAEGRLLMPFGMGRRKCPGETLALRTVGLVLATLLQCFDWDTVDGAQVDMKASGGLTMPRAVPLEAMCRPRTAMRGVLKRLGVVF

ZmCYP81A9-GFP [2] = target: T2, ZmCYP81A9-GFP; experiment: activity-based labeling, streptavidin pull-down LC-MS/MS; details: 10 μM probe, 1 mM NADPH, 1.5 h, leaf microsomes; covalent
ZtCYP539A6 = target: T3, ZtCYP539A6 (Zymoseptoria tritici, UniProt F9XDL6); experiment: as above; details: 30 μM probe, 1 mM NADPH, 1 h, native Z. tritici microsomes; covalent
T3 construct: gene CYP-30; native, microsomes of Z. tritici cell cultures, identified by MS; also expressed as C-terminal GFP fusion in N. benthamiana
T3 sequence (F9XDL6 1-542): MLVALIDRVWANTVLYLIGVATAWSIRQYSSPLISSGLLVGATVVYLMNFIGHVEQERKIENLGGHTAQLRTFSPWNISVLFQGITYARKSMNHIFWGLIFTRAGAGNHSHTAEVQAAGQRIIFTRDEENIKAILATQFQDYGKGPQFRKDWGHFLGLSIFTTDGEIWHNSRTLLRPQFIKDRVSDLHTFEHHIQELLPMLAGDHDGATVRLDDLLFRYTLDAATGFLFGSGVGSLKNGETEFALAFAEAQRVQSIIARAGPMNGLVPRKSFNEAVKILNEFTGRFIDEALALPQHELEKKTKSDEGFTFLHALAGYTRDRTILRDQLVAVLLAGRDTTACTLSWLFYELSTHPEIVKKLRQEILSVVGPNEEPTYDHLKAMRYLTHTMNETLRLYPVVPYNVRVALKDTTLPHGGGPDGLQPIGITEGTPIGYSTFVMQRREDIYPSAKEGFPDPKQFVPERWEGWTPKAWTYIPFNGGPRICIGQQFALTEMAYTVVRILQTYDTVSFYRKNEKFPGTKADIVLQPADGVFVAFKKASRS

ZtCYP52R1 = target: T4, ZtCYP52R1 (Zymoseptoria tritici, UniProt F9XML6); experiment: as above; details: 30 μM probe, 1 mM NADPH, 1 h, native Z. tritici microsomes; covalent
T4 construct: gene CYP-29; native, microsomes of Z. tritici cell cultures, identified by MS; also expressed as C-terminal GFP fusion in N. benthamiana
T4 sequence (F9XML6 1-521): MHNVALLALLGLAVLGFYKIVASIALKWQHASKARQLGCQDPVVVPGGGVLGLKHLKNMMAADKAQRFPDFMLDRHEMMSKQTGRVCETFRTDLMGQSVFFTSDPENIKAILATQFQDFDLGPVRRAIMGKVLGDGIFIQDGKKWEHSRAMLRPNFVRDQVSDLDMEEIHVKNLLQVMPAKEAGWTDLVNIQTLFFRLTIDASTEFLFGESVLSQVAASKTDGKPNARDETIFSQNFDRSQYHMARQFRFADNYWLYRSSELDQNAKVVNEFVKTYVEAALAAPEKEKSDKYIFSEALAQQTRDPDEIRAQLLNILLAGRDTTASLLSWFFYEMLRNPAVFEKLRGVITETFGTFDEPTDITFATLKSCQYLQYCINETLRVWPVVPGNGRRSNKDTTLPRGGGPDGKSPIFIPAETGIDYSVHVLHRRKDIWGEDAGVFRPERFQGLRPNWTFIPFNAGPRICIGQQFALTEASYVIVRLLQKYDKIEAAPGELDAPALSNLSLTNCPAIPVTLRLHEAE

ZmCYP81A9-GFP [3] = target: T2, ZmCYP81A9-GFP; experiment: activity-based labeling, in-gel fluorescence; streptavidin pull-down LC-MS/MS; details: 10 μM probe, 1 mM NADPH, 1.5 h, leaf microsomes; covalent
ZmCYP81A9 = target: T5, ZmCYP81A9 (Zea mays, UniProt A0A804P7U7); experiment: hydroxylation monitored by LC-MS; details: yeast microsomes, 200 μM bentazone, 1 mM NADPH, pH 7.5, 28 °C, 2 h
T5 construct: untagged as described; codon-optimised ORF in pYES3, microsomes of Saccharomyces cerevisiae WAT11
T5 sequence (A0A804P7U7 with tags, fused parts or gaps): T2 sequence (A0A804P7U7 with tags, fused parts or gaps)

SMILES: C#CCCCCNC(=O)c1cc2ccc(C#C)cc2oc1=O [DB086]
- activity-based labeling, click chemistry, in-gel fluorescence (MmCyp1a2-GFP): tested these for labeling with DB086 and DB096
- activity-based labeling, click chemistry, in-gel fluorescence (ZmCYP81A9-GFP [1]): NADPH-dependent fluorescent signal for DB086 and DB096

SMILES: C#CCCCCNC(=O)C1=Cc2ccc(C#C)cc2CC1 [DB088]
- activity-based labeling, streptavidin pull-down LC-MS/MS (ZmCYP81A9-GFP [2]): confirming that ZmCYP81A9-GFP is labeled by both DB088 and DB096

SMILES: C#CCCCCNC(=O)c1ccc(C#C)cc1 [DB096]
- activity-based labeling, click chemistry, in-gel fluorescence (MmCyp1a2-GFP): tested these for labeling with DB086 and DB096
- activity-based labeling, streptavidin pull-down LC-MS/MS (ZtCYP539A6): amongst the DB096-enriched proteins: ZtCYP52R1, ZtCYP539A6, ZtCYP5078B1 and ZtCYP5080H1
- activity-based labeling, streptavidin pull-down LC-MS/MS (ZtCYP52R1): amongst the DB096-enriched proteins: ZtCYP52R1, ZtCYP539A6, ZtCYP5078B1 and ZtCYP5080H1
- activity-based labeling, in-gel fluorescence; streptavidin pull-down LC-MS/MS (ZmCYP81A9-GFP [3]): NADPH-dependent fluorescent signal for DB086 and DB096

SMILES: CC(C)N1C(=O)c2ccccc2NS1(=O)=O [bentazone]
- hydroxylation monitored by LC-MS (ZmCYP81A9): used to monitor the conversion of bentazone, leading to hydroxybentazone
